Drawing on patent US7153855B2, “Pyrazolopyridinyl pyrimidine therapeutic compounds” (SmithKline Beecham Corporation, priority 2001, dated 2006), this text covers IC50 for 23 compounds.

Where a name gives a salt, the structure may show the parent alone.

The assay concerns HSV-1. The assay can be described thus: HSV-1 infection of Vero 76 cells, viral DNA detected by hybridization capture (chemiluminescence). The following applies: Human alphaherpesvirus 1; HSV-1 in Vero 76 cells, MOI=0.001, compounds incubated 40–48 hours at 37° C.; read-out: IC50. The format is cell-based. From the text:
In the following example, “MEM” means Minimal Essential Media; “FBS” means Fetal Bovine Serum; “NP40” and “Igepal” are detergents; “MOI” means Multiplicity of Infection; “NaOH” means sodium hydroxide; “MgCl2” means magnesium chloride; “dATP” means deoxyadenosine 5′ triphosphate; “dUTP” means deoxyuridine 5′ triphosphate; “dCTP” means dexoxycytidine 5′ triphosphate; “dGTP” means deoxyguanosine 5′ triphosphate; “GuSCN” means Guanidinium thiocyanate; “EDTA” means ethylenediamine tetraacetic acid; “TE” means Tris-EDTA; “SCC” means sodium chloride/sodium citrate; “APE” means a solution of ammonia acetate, ammonia phosphate, EDTA; “PBS” means phosphate buffered saline; and “HRP” means horseradish peroxidase.
Vero 76 cells were maintained in MEM with Earle's salts, L-glutamine, 8% FBS (Hyclone, A-1111-L) and 100 units/mL Penicillin-100 μg/mL Streptomycin. For assay conditions, FBS was reduced to 2%. Cells are seeded into 96-well tissue culture plates at a density of 5×10^4 cells/well after being incubated for 45 min at 37° C. in the presence of HSV-1 or HSV-2 (MOI=0.001). Test compounds are added to the wells and the plates are incubated at 37° C. for 40–48 hours. Cell lysates are prepared as follows: media was removed and replaced with 150 μL/well 0.2 N NaOH with 1% Igepal CA 630 or NP-40. Plates were incubated up to 14 days at room temperature in a humidified chamber to prevent evaporation.
For the detection probe, a gel-purified, digoxigenin-labeled, 710-bp PCR fragment of the HSV UL-15 sequence was utilized. PCR conditions included 0.5 μM primers, 180 μM dTTP, 20 μM dUTP-digoxigenin (Boehringer Mannheim 1558706), 200 μM each of dATP, dCTP, and dGTP, 1×PCR Buffer II (Perkin Elmer), 2.5 mM MgCl2, 0.025 units/μL of AmpliTaq Gold polymerase (Perkin Elmer), and 5 ng of gel-purified HSV DNA per 100 μL Extension conditions were 10 min at 95° C., followed by 30 cycles of 95° C. for 1 min, 55° C. for 30 sec, and 72° C. for 2 min. The amplification was completed with a 10-min incubation at 72° C. Primers were selected to amplify a 728 bp probe spanning a section of the HSV1 UL15 open reading frame (nucleotides 249–977). Single-stranded transcripts were purified with Promega M13 Wizard kits. The final product was mixed 1:1 with a mixture of 6 M GuSCN, 100 mM EDTA and 200 μg/mL herring sperm DNA and stored at 4° C.
The capture DNA plasmid (HSV UL13 region in pUC) was linearized by cutting with Xba I, denatured for 15 min at 95° C. and diluted immediately into Reacti-Bind DNA Coating Solution (Pierce, 17250, diluted 1:1 with TE buffer, pH 8) at 1 ng/μL 75 μL/well were added to Corning (#3922 or 9690) white 96-well plates and incubated at room temperature for at least 4 hrs before washing twice with 300 μL/well 0.2×SSC/0.05% Tween-20 (SSC/T buffer). The plates were then incubated overnight at room temperature with 150 μL/well 0.2 N NaOH, 1% IGEPAL and 10 μg/mL herring sperm DNA.
Twenty-seven (27) μL of cell lysate was combined with 45 μL of hybridization solution (final concentration: 3M GuSCN, 50 mM EDTA, 100 μg/ml salmon sperm DNA, 5×Denhardt's solution, 0.25×APE, and 5 ng of the digoxigenin-labeled detection probe). APE is 1.5 M NH4-acetate, 0.15 M NH4H2 phosphate, and 5 mM EDTA adjusted to pH 6.0. Mineral oil (50 μL) was added to prevent evaporation. The hybridization plates were incubated at 95° C. for 10 minutes to denature the DNA, then incubated at 42° C. overnight. The wells were washed 6× with 300 μL/well SSC/T buffer then incubated with 75 μL/well anti-digoxigenin-HRP-conjugated antibody (Boehringer Mannheim 1207733, 1:5000 in TE) for 30 min at room temperature. The wells were washed 6× with 300 μL/well with PBS/0.05% Tween-20 before 75 μL/well SuperSignal LBA substrate (Pierce) was added. The plates were incubated at room temperature for 30 minutes and chemiluminescence was measured in a Wallac Victor reader.
The following results were obtained for HSV-1.
Take `COc1ccc(-c2nn3c(NCCCCO)cccc3c2-c2ccnc(NC3CCCC3)n2)cc1` [Example 90, 4-{[3-[2-(Cyclopentylamino)pyrimidin-4-yl]-2-(4-methoxyphenyl)-pyrazolo[1,5-a]pyridin-7-yl]amino}butan-1-ol]: the IC50 turned out to be 0.2 µM.

As for `CC(=O)Nc1cccc(-c2nn3c(NC4CCCC4)cccc3c2-c2ccnc(NC3CCCC3)n2)c1` [Example 35, N-(3-{7-(Cyclopentylamino)-3-[2-(cyclopentylamino)-4-pyrimidinyl]pyrazolo[1,5-a]pyridin-2-yl}phenyl)acetamide], the half-maximal inhibitory concentration (IC50) was determined as 2 µM.

`COc1ccc(-c2nn3c(NCCCCNC(=O)CCC(=O)O)cccc3c2-c2ccnc(NC3CCCC3)n2)cc1` [Example 88, 4-[(4-{[3-[2-(Cyclopentylamino)pyrimidin-4-yl]-2-(4-methoxyphenyl)pyrazolo[1,5-a]pyridin-7-yl]amino}butyl)amino]-4-oxobutanoic acid]: the IC50 stood at 9 µM.

Turning to `COc1ccc(-c2nn3c(NCCCCNC(=O)NS(=O)(=O)c4ccc(C)cc4)cccc3c2-c2ccnc(NC3CCCC3)n2)cc1` [Example 87, N-{[(4-{[3-[2-(Cyclopentylamino)pyrimidin-4-yl]-2-(4-methoxyphenyl)pyrazolo[1,5-a]pyridin-7-yl]amino}butyl)amino]carbonyl}-4-methylbenzenesulfonamide], the IC50 amounted to 1 µM.

As for `COc1cccc(-c2nn3c(N(C)C)cccc3c2-c2ccnc(NC3CCCC3)n2)c1` [Example 53, 3-[2-(Cyclopentylamino)-4-pyrimidinyl]-2-(3-methoxyphenyl)-N,N-dimethylpyrazolo[1,5-a]pyridin-7-amine], the IC50 amounted to 1.1 µM.

As to `COc1ccc(-c2nn3c(NC4CC4)cccc3c2-c2ccnc(NC3CC3)n2)cc1` [Example 66, N-Cyclopropyl-3-[2-(cyclopropylamino)-4-pyrimidinyl]-2-(4-methoxyphenyl)pyrazolo[1,5-a]pyridin-7-amine], the IC50 turned out to be 1.3 µM.

Consider `CCCCNc1nccc(-c2c(-c3ccc(NCC4CC4)cc3)nn3c(NCCCC)cccc23)n1` [Example 22, N-butyl-3-[2-(butylamino)-4-pyrimidinyl]-2-{4-[(cyclopropylmethyl)amino]phenyl}pyrazolo[1,5-a]pyridin-7-amine], for which the half-inhibitory concentration (IC50) was determined as 0.6 µM.

For the compound `Oc1cccc(-c2nn3c(NC4CCCC4)cccc3c2-c2ccnc(NC3CCCC3)n2)c1` [Example 54, 3-{7-(Cyclopentylamino)-3-[2-(cyclopentylamino)-4-pyrimidinyl]pyrazolo[1,5-a]pyridin-2-yl}phenol], the IC50 turned out to be 0.65 µM.

On to `COc1ccc(-c2nn3c(NCCCCNS(C)(=O)=O)cccc3c2-c2ccnc(NC3CCCC3)n2)cc1` [Example 86, N-(4-{[3-[2-(Cyclopentylamino)pyrimidin-4-yl]-2-(4-methoxyphenyl)pyrazolo[1,5-a]pyridin-7-yl]amino}butyl)methanesulfonamide], for which the IC50 stood at 0.6 µM.

Turning to `CS(=O)(=O)Nc1cccc(-c2nn3c(NC4CCCC4)cccc3c2-c2ccnc(NC3CCCC3)n2)c1` [Example 36, N-(3-{7-(Cyclopentylamino)-3-[2-(cyclopentylamino)-4-pyrimidinyl]-pyrazolo[1,5-a]pyridin-2-yl}phenyl)methanesulfonamide], the IC50 turned out to be 3 µM.

`CCCCOc1ccc(-c2nn3c(NC4CCCC4)cccc3c2-c2ccnc(NC3CCCC3)n2)cc1` [Example 9, 2-(4-Butoxyphenyl)-N-cyclopentyl-3-[2-(cyclopentylamino)-4-pyrimidinyl]-pyrazolo[1,5-a]pyridin-7-amine]: the IC50 worked out at 3 µM.

In the case of `COc1ccc(-c2nn3c(NC4CCCC4)cccc3c2-c2ccnc(NC3CCCC3)n2)cc1Br` [Example 42, N-{4-[2-(3-Bromo-4-methoxyphenyl)-7-(cyclopentylamino)pyrazolo[1,5-a]pyridin-3-yl]-2-pyrimidinyl}-N-cyclopentylamine], the IC50 came to 1.4 µM.

For `c1ccc(-c2cccc(-c3nn4c(N5CCCC5)cccc4c3-c3ccnc(NC4CCCC4)n3)c2)cc1` [Example 30, 4-[2-[1,1′-Biphenyl]-3-yl-7-(1-pyrrolidinyl)pyrazolo[1,5-a]pyridin-3-yl]-N-cyclopentyl-2-pyrimidinamine], the IC50 is 0.8 µM.

Consider `COc1ccc(-c2nn3c(NCCCCOP(=O)(O)O)cccc3c2-c2ccnc(NC3CCCC3)n2)cc1` [Example 92, 4-{[3-[2-(Cyclopentylamino)pyrimidin-4-yl]-2-(4-methoxy-phenyl)pyrazolo[1,5-a]pyridin-7-yl]amino}butyl phosphate diammonium salt], for which the IC50 was found to be 0.3 µM.

In the case of `O=C(O)c1cccc(-c2nn3c(NC4CCCC4)cccc3c2-c2ccnc(NC3CCCC3)n2)c1` [Example 41, 3-{7-(Cyclopentylamino)-3-[2-(cyclopentylamino)-4-pyrimidinyl]pyrazolo-[1,5-a]pyridin-2-yl}benzoic acid], the IC50 turned out to be 3.5 µM.

As to `COCCNc1cccc2c(-c3ccnc(NC4CCCC4)n3)c(-c3cccc(F)c3)nn12` [Example 106, 3-[2-(Cyclopentylamino)-4-pyrimidinyl]-2-(3-fluorophenyl)-N-(2-methoxyethyl)pyrazolo[1,5-a]pyridin-7-amine], the IC50 was 0.2 µM.

`Fc1cccc(-c2nn3c(N4CCOCC4)cccc3c2-c2ccnc(NC3CCCC3)n2)c1` [Example 97, N-Cyclopentyl-4-[2-(3-fluorophenyl)-7-(4-morpholinyl)pyrazolo[1,5-a]pyridin-3-yl]-2-pyrimidinamine]: the IC50 amounted to 0.7 µM.

Turning to `COc1ccc(-c2nn3c(NCCCCNC(=N)N)cccc3c2-c2ccnc(NC3CCCC3)n2)cc1` [Example 85, N-(4-{[3-[2-(Cyclopentylamino)pyrimidin-4-yl]-2-(4-methoxyphenyl)pyrazolo[1,5-a]pyridin-7-yl]amino}butyl)guanidine], the half-maximal inhibitory concentration (IC50) worked out at 4 µM.

Regarding `c1cc(NC2CC2)n2nc(-c3ccc(OCC4CC4)cc3)c(-c3ccnc(NC4CCCC4)n3)c2c1` [Example 70, 3-[2-(Cyclopentylamino)-4-pyrimidinyl]-N-cyclopropyl-2-[4-(cyclopropylmethoxy)phenyl]pyrazolo[1,5-a]pyridin-7-amine], the IC50 came to 0.6 µM.

With `Clc1cccc(-c2nn3c(NC4CC4)cccc3c2-c2ccnc(NC3CC3)n2)c1` [Example 99, 2-(3-Chlorophenyl)-N-cyclopropyl-3-[2-(cyclopropylamino)-4-pyrimidinyl]pyrazolo[1,5-a]pyridin-7-amine], the concentration for half-maximal inhibition (IC50) was 0.5 µM.

With `c1ccc(-c2cccc(-c3nn4c(NC5CCCC5)cccc4c3-c3ccnc(NC4CCCC4)n3)c2)cc1` [Example 29, 2-[1,1′-Biphenyl]-3-yl-N-cyclopentyl-3-[2-(cyclopentylamino)-4-pyrimidinyl]pyrazolo[1,5-a]pyridin-7-amine], the IC50 came to 3 µM.

In the case of `COCCNc1cccc2c(-c3ccnc(NC4CC4)n3)c(-c3ccc(OC)cc3)nn12` [Example 64, 3-[2-(Cyclopropylamino)-4-pyrimidinyl]-N-(2-methoxyethyl)-2-(4-methoxyphenyl)pyrazolo[1,5-a]pyridin-7-amine], the IC50 amounted to 0.3 µM.

For `COc1ccc(-c2nn3c(NCCCCN)cccc3c2-c2ccnc(NC3CCCC3)n2)cc1` [Example 81, N-[3-[2-(Cyclopentylamino)pyrimidin-4-yl]-2-(4-methoxyphenyl)-pyrazolo[1,5-a]pyridin-7-yl]butane-1,4-diamine], the IC50 was found to be 0.6 µM.

Usually IC50 stands for the concentration that gives 50% inhibition.
